Experimental findings from patent US20120095036A1, “NOVEL SUBSTITUTED INDAZOLE AND AZA-INDAZOLE DERIVATIVES AS GAMMA SECRETASE MODULATORS” (priority 2009, published 2012) are described below.

The test system of series [1] is Aβ42. The experiment in a line: Method 1: Aβ42 sandwich ELISA on media of SKNBE2 cells carrying APP 695 wild type (γ-secretase-modulating activity). Format: cell-based. Conditions: Homo sapiens, SKNBE2 cells APP 695 wild type, 18 hours. The method, boiled down:
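SKNBE2 cells expressing wild-type APP695 exposed to compounds for 18 h in Ultraculture with 1% glutamine. Secreted Aβ42 in media quantified by sandwich ELISA (C-terminal capture, biotinylated 3D6 detection, TMB, 450 nm). IC50 from 4-parameter fit, top/bottom fixed 100/0, Hill slope fixed 1; toxicity checked by WST-1.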

Series [2] deals with Aβtotal. The experiment in a line: Method 1: Aβtotal sandwich ELISA on media of SKNBE2 cells carrying APP 695 wild type. Format: cell-based. Conditions: Homo sapiens, SKNBE2 cells APP 695 wild type, 18 hours. The method, boiled down:
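SKNBE2 cells expressing wild-type APP695 treated with compound for 18 h in Ultraculture; secreted Aβtotal measured by 6E10-capture/biotinylated 4G8 sandwich ELISA with fluorogenic peroxidase read-out. IC50 from 4-parameter fit, top/bottom fixed at 100/0, Hill slope 1; toxicity checked by WST-1.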

For series [3], the system named is Aβ42. The experiment in a line: Method 2: Aβ42 Alphalisa on supernatant of SKNBE2 cells carrying APP 695 wild type. The format is cell-based. Conditions: Homo sapiens, SKNBE2 cells APP 695 wild type, overnight. The method, boiled down:
(§1)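 SKNBE2 cells expressing wild-type APP695 (10^4/well) were incubated overnight at 37 °C with compound at several concentrations. Secreted Aβ42 (C-terminal/N-terminal antibody pair) and Aβtotal (N-terminal/4G8 pair) were measured by AlphaLISA in the supernatant. IC50 values came from 4-parameter fits of percent of untreated control.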
(Alpha assays give light when donor and acceptor beads are brought close together.)

Series [4] concerns Aβtotal. As to the kind of experiment: Method 2: Aβtotal Alphalisa on supernatant of SKNBE2 cells carrying APP 695 wild type. Format: cell-based. Conditions: Homo sapiens, SKNBE2 cells APP 695 wild type, overnight. Summed up:
as §1

Series [5] deals with Notch-processing activity of the γ-secretase-complex. As to the kind of experiment: Notch cell-free assay (NICD production from recombinant Notch substrate N99). The format is biochemical, mouse. Conditions: 1 nM of a test compound, 37° C. for 6 to 22 h, western blotting. As for the experimental part:
The Notch transmembrane domain is cleaved by gamma secretase to release Notch Intracellular C-terminal Domain (NICD).
To monitor the effect of compounds on NICD production, a recombinant Notch substrate (N99) was prepared. The Notch substrate, comprised of mouse Notch fragment (V1711-E1809), an N-terminal methionine and a C-terminal FLAG sequence ([…]), was expressed in E. coli and purified on a column containing an anti-FLAG M2 affinity matrix.
A typical Notch cell-free assay consisted of 0.3-0.5 nM Notch substrate, an enriched preparation of gamma secretase and 1 nM of a test compound (compound 45 of the present invention). Controls included a gamma secretase inhibitor (GSI), such as (2S)-N-[2-(3,5-difluorophenyl)acetyl]-L-alanyl-2-phenyl-glycine 1,1-dimethylethyl ester (DAPT) or (2S)-2-hydroxy-3-methyl-N-[(1S)-1-methyl-2-oxo-2-[[(1S)-2,3,4,5-tetrahydro-3-methyl-2-oxo-1H-3-benzazepin-1-yl]amino]ethyl]-butanamide (Semagacestat), and DMSO, the final concentration of DMSO being 1%. Recombinant Notch substrate was pre-treated with 17 μM DTT (1,4-dithiothreitol) and 0.02% SDS (Sodium Dodecyl Sulfate) and heated at 65° C. for 10 min. The mixture of substrate, gamma secretase and compound/DMSO was incubated at 37° C. for 6 to 22 hours (h). Six-hour incubation was sufficient to produce the maximal amount of NICD and the cleaved product remained stable for an additional 16 h. Reaction products were processed for SDS PAGE (Sodium Dodecyl Sulfate—Poly Acrylamide Gel Electrophoresis) and western blotting. Blots were probed with an anti-Flag M2 antibody, followed by LI-COR infrared secondary antibody, and analyzed with the Odyssey Infrared Imaging System (LI-COR® Biosciences).
(In general: Immunoblotting shows a protein as a band on a membrane.)

In series [6] the test system is Aβ42. As to the kind of experiment: In vivo efficacy: Aβ42 lowering in brain (ELISA). The arrangement: species or system mouse. Conditions: brain soluble fraction; typical protocol: single oral dose, overnight fasted animals, after four hours. From the text:
(§2) To determine whether acute administration of an Aβ42 lowering agent would reduce Aβ42 levels in vivo, non-transgenic rodents, e.g. mice or rats were used. Alternatively, two to three month old Tg2576 mice expressing APP695 containing the “Swedish” variant can be used or a transgenic mouse model developed by Dr. Fred Van Leuven (K.U.Leuven, Belgium) and co-workers, with neuron-specific expression of a clinical mutant of the human amyloid precursor protein [V717I] (Moechars et al., 1999 J. Biol. Chem. 274, 6483). Young transgenic mice have high levels of Aβ in the brain but no detectable Aβ deposition. At approximately 6-8 months of age, the transgenic mice start to display spontaneous, progressive accumulation of β-amyloid (A13) in the brain, eventually resulting in amyloid plaques within the subiculum, hippocampus and cortex. Animals treated with the Aβ42 lowering agent were examined and compared to those untreated or treated with vehicle and brain levels of soluble Aβ42 and total Aβ would be quantitated by standard techniques, for example, using ELISA. Treatment periods varied from hours to days and were adjusted based on the results of the Aβ42 lowering once a time course of onset of effect could be established.
(§3) A typical protocol for measuring Aβ42 lowering in vivo is shown but it is only one of many variations that could be used to optimize the levels of detectable Aβ. For example, Aβ42 lowering compounds were formulated in 20% of Captisol® (a sulfobutyl ether of β-cyclodextrin) in water or 20% hydroxypropyl β cyclodextrin. The Aβ42 lowering agents were administered as a single oral dose or by any acceptable route of administration to overnight fasted animals. After four hours, the animals were sacrificed and Aβ42 levels were analysed.
(§4) Blood was collected by decapitation and exsanguinations in EDTA-treated collection tubes. Blood was centrifuged at 1900 g for 10 minutes (min) at 4° C. and the plasma recovered and flash frozen for later analysis. The brain was removed from the cranium and hindbrain. The cerebellum was removed and the left and right hemisphere were separated. The left hemisphere was stored at −18° C. for quantitative analysis of test compound levels. The right hemisphere was rinsed with phosphate-buffered saline (PBS) buffer and immediately frozen on dry ice and stored at −80° C. until homogenization for biochemical assays.
(§5) Mouse brains were resuspended in 10 volumes of 0.4% DEA (diethylamine)/50 mM NaCl pH 10 (for non-transgenic animals) or 0.1% 3-[(3-cholamidopropyl)-dimethyl-ammonio]-1-propanesulfonate (CHAPS) in tris buffered saline (TBS) (for transgenic animals) containing protease inhibitors (Roche-11873580001 or 04693159001) per gram of tissue, e.g. for 0.158 g brain, add 1.58 ml of 0.4% DEA. All samples were sonicated for 30 sec on ice at 20% power output (pulse mode). Homogenates were centrifuged at 221.300×g for 50 min. The resulting high speed supernatants were then transferred to fresh tubes and were optionally further purified before the next step. A portion of the supernatant was neutralized with 10% 0.5 M Tris-HCl and this was used to quantify Aβtotal.
(§6) The obtained supernatants were purified with Water Oasis HLB reverse phase columns (Waters Corp., Milford, Mass.) to remove non-specific immunoreactive material from the brain lysates prior subsequent Aβ detection. Using a vacuum manifold, all solutions were passed through the columns at a rate of approximately 1 ml/min, so the vacuum pressure was adjusted accordingly throughout the procedure. Columns were preconditioned with 1 ml of 100% MeOH, before equilibration with 1 ml of H2O, Non-neutralized brain lysates were loaded onto the columns. The loaded samples were then washed twice with the first wash performed with 1 ml of 5% MeOH, and the second wash with 1 ml of 30% MeOH. Finally, the Aβ was eluted from the columns and into 100×30 mm glass tubes, with a solution of 90% MeOH with 2% NH4OH. […]

For series [7], the system named is Aβtotal. The experiment in a line: In vivo efficacy: Aβtotal in brain (ELISA). The arrangement: species or system mouse. Conditions: brain soluble fraction; typical protocol: single oral dose, overnight fasted animals, after four hours.
Source text: as §2, §3, §4, §5, §6
A general note: An ELISA detects its analyte on a solid surface through an enzyme-linked reagent.

The structures appear in SMILES notation.

For `COc1ccc(C)c(-n2nc3c(Nc4ccc(-c5cnc(C)o5)nc4)cccc3c2C)c1` [Compound 45, 2-(5-methoxy-2-methylphenyl)-3-methyl-N-[6-(2-methyl-5-oxazolyl)-3-pyridinyl]-2H-indazol-7-amine], the half-maximal inhibitory concentration (IC50) in series [1] is 23 nM; in series [2] it was > 3000 nM; in series [3], 18 nM; in series [4], 6760 nM. The “effect on the Notch-processing activity of the γ-secretase-complex (production of NICD)” value (shortened to “effect on the Notch-processing activity”) in series [5] was “did not show an effect”.

As to `COc1nc(Nc2cccc3cn(CC(F)(F)F)nc23)ccc1-n1cnc(C)c1` [Compound 54, N-[6-methoxy-5-(4-methyl-1H-imidazol-1-yl)-2-pyridinyl]-2-(2,2,2-trifluoroethyl)-2H-indazol-7-amine], the melting point was found to be 206 °C. Also, the half-maximal inhibitory concentration (IC50) in series [3] came out at 66 nM. For the same molecule, the half-maximal inhibitory concentration (IC50) in series [4] was > 10000 nM. Besides, in series [6], the “Aβ42 (% Ctrl) _Mean” value was 72 % Ctrl. The “Aβtotal (% Ctrl) _Mean” value in series [7] came to 109 % Ctrl.

On to `C[C@H](NC(=O)Cc1cc(F)cc(F)c1)C(=O)NC(C(=O)OC(C)(C)C)c1ccccc1` (stereo partly drawn) [DAPT, (2S)-N-[2-(3,5-difluorophenyl)acetyl]-L-alanyl-2-phenyl-glycine 1,1-dimethylethyl ester], for which the “effect on the Notch-processing activity” value in series [5] is recorded as “blocked”.

For the molecule `CC(C)[C@H](O)C(=O)N[C@@H](C)C(=O)N[C@@H]1C(=O)N(C)CCc2ccccc21` [Semagacestat, (2S)-2-hydroxy-3-methyl-N-[(1S)-1-methyl-2-oxo-2-[[(1S)-2,3,4,5-tetrahydro-3-methyl-2-oxo-1H-3-benzazepin-1-yl]amino]ethyl]-butanamide], the “effect on the Notch-processing activity” value in series [5] is recorded as “blocked”.

One may read the IC50 as the concentration needed to halve the response being measured. For orientation: melting point means the temperature of the solid-liquid transition.
